Assay results from patent US6054435A, “6-O-substituted macrolides having antibacterial activity” (priority 1999, dated 2000).
In brackets after ≈: the same amount, converted by molar mass.

Assays:
Assay in all cases: in vitro antibacterial activity (MIC), agar dilution
Type in all cases: cell-based
[1] = system: Candida albicans CCH 442; conditions: organism code TT; BHI agar, 35-37° C., 20 to 24 hours; unit assumed
How it was run: (§1)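 Endpoint: lowest concentration with no growth, slight haze or sparsely isolated colonies at the inoculum spot, judged against a compound-free BHI control. Strains were replicator-inoculated at 1:100 (1:10 for Streptococcus and other slow growers).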

[2] = system: Enterococcus faecium ATCC 8043; conditions: organism code II; BHI agar, 35-37° C., 20 to 24 hours; unit assumed
How it was run: as §1

[3] = system: Escherichia coli DC-2; conditions: organism code SS; BHI agar, 35-37° C., 20 to 24 hours; unit assumed
How it was run: as §1

[4] = system: Escherichia coli JUHL; conditions: organism code QQ; BHI agar, 35-37° C., 20 to 24 hours; unit assumed
How it was run: as §1

[5] = system: Escherichia coli SS; conditions: organism code RR; BHI agar, 35-37° C., 20 to 24 hours; unit assumed
How it was run: as §1

[6] = system: Haemophilis Influenzae DILL AMP R; conditions: organism code WW; BHI agar, 35-37° C., 20 to 24 hours; unit assumed
How it was run: as §1

[7] = system: Micrococcus luteus ATCC 4698; conditions: organism code PP; BHI agar, 35-37° C., 20 to 24 hours; unit assumed
How it was run: (§2)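 Agar dilution on BHI agar with twelve successive compound dilutions; plates inoculated by Steers replicator with 1:100 culture dilutions (1:10 for slow growers such as Streptococcus). MIC is the lowest concentration giving no growth, slight haze or sparse colonies versus a drug-free control.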

[8] = system: Micrococcus luteus ATCC 9341; conditions: organism code OO; BHI agar, 35-37° C., 20 to 24 hours; unit assumed
How it was run: as §2

[9] = system: Mycobacterium smegmatis ATCC 114; conditions: organism code UU; BHI agar, 35-37° C., 20 to 24 hours; unit assumed
How it was run: as §1

[10] = system: Nocardia Asteroides ATCC9970; conditions: organism code VV; BHI agar, 35-37° C., 20 to 24 hours; unit assumed
How it was run: as §1

[11] = system: Staphylococcus aureus 1775; conditions: organism code GG; BHI agar, 35-37° C., 20 to 24 hours; unit assumed
How it was run: as §1

[12] = system: Staphylococcus aureus A-5278; conditions: organism code CC; BHI agar, 35-37° C., 20 to 24 hours; unit assumed
How it was run: as §1

[13] = system: Staphylococcus aureus A5177; conditions: organism code BB; BHI agar, 35-37° C., 20 to 24 hours; unit assumed
How it was run: as §1

[14] = system: Staphylococcus aureus ATCC 6538P; conditions: organism code AA; BHI agar, 35-37° C., 20 to 24 hours; unit assumed
How it was run: as §1

[15] = system: Staphylococcus aureus CMX 553; conditions: organism code FF; BHI agar, 35-37° C., 20 to 24 hours; unit assumed
How it was run: as §1

[16] = system: Staphylococcus aureus CMX 642A; conditions: organism code DD; BHI agar, 35-37° C., 20 to 24 hours; unit assumed
How it was run: as §1

[17] = system: Staphylococcus aureus NCTC10649M; conditions: organism code EE; BHI agar, 35-37° C., 20 to 24 hours; unit assumed
How it was run: as §1

[18] = system: Staphylococcus epidermidis 3519; conditions: organism code HH; BHI agar, 35-37° C., 20 to 24 hours; unit assumed
How it was run: as §1

[19] = system: Streptococcus Pneumonia 5649; conditions: organism code ZZA; BHI agar, 35-37° C., 20 to 24 hours; unit assumed
How it was run: as §1

[20] = system: Streptococcus Pneumonia 5979; conditions: organism code ZZ; BHI agar, 35-37° C., 20 to 24 hours; unit assumed
How it was run: as §1

[21] = system: Streptococcus Pneumonia ATCC6303; conditions: organism code XX; BHI agar, 35-37° C., 20 to 24 hours; unit assumed
How it was run: as §1

[22] = system: Streptococcus Pneumonia GYR 1171; conditions: organism code YY; BHI agar, 35-37° C., 20 to 24 hours; unit assumed
How it was run: as §1

[23] = system: Streptococcus agalactiae CMX 508; conditions: organism code KK; BHI agar, 35-37° C., 20 to 24 hours; unit assumed
How it was run: as §1

[24] = system: Streptococcus bovis A-5169; conditions: organism code JJ; BHI agar, 35-37° C., 20 to 24 hours; unit assumed
How it was run: as §1

[25] = system: Streptococcus pyogenes 930; conditions: organism code MM; BHI agar, 35-37° C., 20 to 24 hours; unit assumed
How it was run: as §1

[26] = system: Streptococcus pyogenes EES61; conditions: organism code LL; BHI agar, 35-37° C., 20 to 24 hours; unit assumed
How it was run: as §1

[27] = system: Streptococcus pyogenes PIU 2548; conditions: organism code NN; BHI agar, 35-37° C., 20 to 24 hours; unit assumed
How it was run: as §1

CC[C@H]1OC(=O)[C@H](C)C(=O)[C@H](C)[C@@H](O[C@@H]2O[C@H](C)C[C@H](N(C)C)[C@H]2O)[C@](C)(OCC#Cc2ccc(-c3nccs3)s2)C[C@@H](C)C(=O)[C@H](C)[C@H]2NC(=O)O[C@@]21C [Example 28]
MIC [1]: > 100 µg/mL
MIC [2]: 0.05 µg/mL (≈ 0.0623 µM)
MIC [3]: 12.5 µg/mL (≈ 15.6 µM)
MIC [4]: 25 µg/mL (≈ 31.2 µM)
MIC [5]: 0.1 µg/mL (≈ 0.125 µM)
MIC [6]: 2 µg/mL (≈ 2.49 µM)
MIC [7]: 0.1 µg/mL (≈ 0.125 µM)
MIC [8]: 0.01 µg/mL (≈ 0.0125 µM)
MIC [9]: 0.2 µg/mL (≈ 0.249 µM)
MIC [10]: 0.05 µg/mL (≈ 0.0623 µM)
MIC [11]: > 100 µg/mL
MIC [12]: > 100 µg/mL
MIC [13]: 0.05 µg/mL (≈ 0.0623 µM)
MIC [14]: 0.05 µg/mL (≈ 0.0623 µM)
MIC [15]: 0.05 µg/mL (≈ 0.0623 µM)
MIC [16]: 0.05 µg/mL (≈ 0.0623 µM)
MIC [17]: 0.1 µg/mL (≈ 0.125 µM)
MIC [18]: 0.05 µg/mL (≈ 0.0623 µM)
MIC [19]: 0.25 µg/mL (≈ 0.312 µM)
MIC [20]: 1 µg/mL (≈ 1.25 µM)
MIC [21]: 0.03 µg/mL (≈ 0.0374 µM)
MIC [22]: 0.03 µg/mL (≈ 0.0374 µM)
MIC [23]: 0.02 µg/mL (≈ 0.0249 µM)
MIC [24]: ≤ 0.005 µg/mL
MIC [25]: 12.5 µg/mL (≈ 15.6 µM)
MIC [26]: ≤ 0.005 µg/mL
MIC [27]: 0.1 µg/mL (≈ 0.125 µM)

CC[C@H]1OC(=O)[C@H](C)C(=O)[C@H](C)[C@@H](O[C@@H]2O[C@H](C)C[C@H](N(C)C)[C@H]2O)[C@](C)(OC/C=C/c2ccc(-c3cncnc3)s2)C[C@@H](C)C(=O)[C@H](C)[C@H]2NC(=O)O[C@@]21C [Example 70]
MIC [1]: > 100 µg/mL
MIC [2]: 0.05 µg/mL (≈ 0.0626 µM)
MIC [3]: 100 µg/mL (≈ 125 µM)
MIC [4]: 100 µg/mL (≈ 125 µM)
MIC [5]: 0.78 µg/mL (≈ 0.976 µM)
MIC [6]: 4 µg/mL (≈ 5.01 µM)
MIC [7]: 0.1 µg/mL (≈ 0.125 µM)
MIC [8]: 0.02 µg/mL (≈ 0.025 µM)
MIC [9]: 0.39 µg/mL (≈ 0.488 µM)
MIC [10]: 0.02 µg/mL (≈ 0.025 µM)
MIC [11]: > 100 µg/mL
MIC [12]: > 100 µg/mL
MIC [13]: 0.2 µg/mL (≈ 0.25 µM)
MIC [14]: 0.1 µg/mL (≈ 0.125 µM)
MIC [15]: 0.1 µg/mL (≈ 0.125 µM)
MIC [16]: 0.1 µg/mL (≈ 0.125 µM)
MIC [17]: 0.2 µg/mL (≈ 0.25 µM)
MIC [18]: 0.1 µg/mL (≈ 0.125 µM)
MIC [19]: 0.25 µg/mL (≈ 0.313 µM)
MIC [20]: 4 µg/mL (≈ 5.01 µM)
MIC [21]: 0.015 µg/mL (≈ 0.0188 µM)
MIC [22]: 0.015 µg/mL (≈ 0.0188 µM)
MIC [23]: 0.02 µg/mL (≈ 0.025 µM)
MIC [24]: 0.01 µg/mL (≈ 0.0125 µM)
MIC [25]: 12.5 µg/mL (≈ 15.6 µM)
MIC [26]: 0.01 µg/mL (≈ 0.0125 µM)
MIC [27]: 0.1 µg/mL (≈ 0.125 µM)

CC[C@H]1OC(=O)[C@H](C)C(=O)[C@H](C)[C@@H](O[C@@H]2O[C@H](C)C[C@H](N(C)C)[C@H]2O)[C@](C)(OC/C=C/c2ccc(-c3cccnc3)s2)C[C@@H](C)C(=O)[C@H](C)[C@H]2NC(=O)O[C@@]21C [Example 68]
MIC [1]: > 100 µg/mL
MIC [2]: 0.05 µg/mL (≈ 0.0627 µM)
MIC [3]: > 100 µg/mL
MIC [4]: 100 µg/mL (≈ 125 µM)
MIC [5]: 0.39 µg/mL (≈ 0.489 µM)
MIC [6]: 2 µg/mL (≈ 2.51 µM)
MIC [7]: 0.39 µg/mL (≈ 0.489 µM)
MIC [8]: 0.02 µg/mL (≈ 0.0251 µM)
MIC [9]: 3.1 µg/mL (≈ 3.88 µM)
MIC [10]: 0.05 µg/mL (≈ 0.0627 µM)
MIC [11]: > 100 µg/mL
MIC [12]: > 100 µg/mL
MIC [13]: 6.2 µg/mL (≈ 7.77 µM)
MIC [14]: 0.2 µg/mL (≈ 0.251 µM)
MIC [15]: 0.39 µg/mL (≈ 0.489 µM)
MIC [16]: 0.39 µg/mL (≈ 0.489 µM)
MIC [17]: 0.39 µg/mL (≈ 0.489 µM)
MIC [18]: 0.39 µg/mL (≈ 0.489 µM)
MIC [19]: 0.125 µg/mL (≈ 0.157 µM)
MIC [20]: 0.125 µg/mL (≈ 0.157 µM)
MIC [21]: ≤ 0.004 µg/mL
MIC [22]: ≤ 0.004 µg/mL
MIC [23]: 0.02 µg/mL (≈ 0.0251 µM)
MIC [24]: 0.02 µg/mL (≈ 0.0251 µM)
MIC [25]: > 100 µg/mL
MIC [26]: 0.05 µg/mL (≈ 0.0627 µM)
MIC [27]: 6.2 µg/mL (≈ 7.77 µM)
